≈ marks a conversion by molar mass, not a printed value. Like-named read-outs stand apart in the source and are kept apart here.
Tests used:
[1] = tested on: Salmonella typhimurium LT2; settings: for MICs in the indicated concentrations (mM) of polyamines: Spermine (1 mM): with 1 mM spermine; for MICs in the indicated concentrations (mM) of polyamines: Spermidine (20 mM): with 20 mM spermidine;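 on all read-outs here: Two-fold agar or broth dilution in Mueller-Hinton broth, MIC taken as lowest drug concentration without visible turbidity, tested alone or combined with polyamines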
Description: (§1) Various strains of bacteria, including P. aeruginosa and e. coli were grown on Luria-Bertani (LB) agar/broth or Mueller-Hinton (MH) agar/broth. […] The antibiotics, chemicals, and/or polyamines were dissolved in double distilled water or solvent and thereafter filtered through a 0.4 μm disposable membranes.
(§2) The MIC values of the strains associated with various combinations of polyamines and antibiotics were determined using standard two-fold agar dilutions techniques and broth dilutions techniques in Mueller-Hinton broth. The lowest concentration of drug with no visible turbidity was deemed the MIC.

P. aeruginosa PAO1 [2] = experiment: MIC of antibiotics against P. aeruginosa PAO1 with or without polyamines; type: cell-based; settings: for MIC values in the presence versus the absence of polyamines: hydrophobic antibiotics (FIG. 1)
Description: as §1, §2

[3] = tested on: Salmonella typhimurium LT2; experiment: microbe, parasite or virus in culture; settings: Salmonella enterica, read-out: MICs in the indicated concentrations (mM) of polyamines: No add;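 further: Two-fold agar or broth dilution in Mueller-Hinton broth, MIC taken as lowest drug concentration without visible turbidity, tested alone or combined with polyamines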
Description: as §1, §2

[4] = tested on: E. coli (K10, K12, C921-61); experiment: MIC of antibiotics against E. coli strains with or without polyamines (FIG. 3); type: cell-based; settings: E. coli K10, K12, C921-61 and S. typhimurium LT2
Description: as §1, §2

P. aeruginosa PAO1 [5] = experiment: Time killing assay of P. aeruginosa PAO1 in human serum (FIG. 4); type: cell-based
Description: Time-killing assays were performed for various bacteria samples. Briefly, the tested bacteria were grown to mid-log phase in Mueller-Hinton broth media. […] As a control group, cells were diluted in a sodium phosphate without any additional compounds. Aliquots were withdrawn at specific time intervals and spread on LB agar plates and incubated overnight at 37 C. The percent of colonies that survived were determined relative to the control.

E. coli K10 = experiment: MIC of carbenicillin against E. coli K10 with divalent ions or salt and polyamines; type: cell-based; settings: Escherichia coli, read-out: MICs to carbenicillin
Description: as §1, §2

[6] = tested on: MRSA Staphylococcus aureus 700699; experiment: MIC of antibiotics against MRSA Staphylococcus aureus 700699 with or without spermine; type: cell-based
[7] = tested on: methicillin resistant Staphylococcus aureus (MRSA) Mu50; experiment: MIC of antibiotics against MRSA Mu50 with or without spermine; type: cell-based; settings: for MICs in the presence or absence of spermine (1 mM): Spermine: with 1 mM spermine
[8] = tested on: outer membrane permeability; experiment: Outer membrane permeabilization assay (β-lactamase activity in whole cells or released into suspension); type: cell-based; settings: for β-lactamase activity detected: 20 mM (FIG. 7)
Description: The β-lactamase activity was determined by a spectrophotometric method using nitrocefin as a substrate. After the β-lactamase was extracted from the cells, the β-lactamase activity was monitored by absorbance changes in wavelength at 486 nm with a molar extinction coefficient of 20500. The extent of hydrolysis was a reflection of the amount of enzyme remaining uninhibited.
An outer membrane permeabilization assay was performed by examining the release of the chromosomally encoded β-lactamase. Briefly, stationary phase cells were diluted 1:59 into 20 mL pre-warmed MMP broth and cultured in an incubator at 350 rpm and at 37 C for 5 hours. After carbenicillin (200 μg/mL) was added to induce β-lactamase activity, the culture was incubated for additional 5 hours. The cells were harvested by centrifugation at 5,000×g for 10 minutes and washed once with 0.05M sodium phosphate buffer at pH 7.2. The cell pellet was resuspended in 5 mL of the same buffer and divided into 1 mL aliquots. […] […] The reaction mixtures were incubated at room temperature for 5 minutes and immediately centrifuged at full speed (15000×g) for 20 minutes and the supernatant was used for β-lactamase sources. β-lactamase activity was determined as described above using 300 μL of the supernatant.

CO[C@@H]1[C@@H](OC(N)=O)[C@@H](O)[C@H](Oc2ccc3c(O)c(NC(=O)c4ccc(O)c(CC=C(C)C)c4)c(=O)oc3c2C)OC1(C)C [Novobiocin]
MICs in the indicated concentrations (mM) of polyamines: Spermine (1 mM) [1]: 1024 µg/mL | MICs in the indicated concentrations (mM) of polyamines: Spermidine (20 mM) [1]: 256 µg/mL | MIC values in the presence versus the absence of polyamines (P. aeruginosa PAO1 [2]): identical | MIC [3]: > 1020 µg/mL | susceptibility with the combination of polyamines and antibiotics [4]: improved susceptibility

CC1(C)S[C@@H]2[C@H](NC(=O)C(C(=O)O)c3ccccc3)C(=O)N2[C@H]1C(=O)O (some centres unmarked) [Carbenicillin]
growth of P. aeruginosa PAO1 in human serum (P. aeruginosa PAO1 [5]; 16 μg/mL carbenicillin alone): initial inhibition, this inhibition was followed by a full recovery of growth | percent of the inoculants killed in human serum (P. aeruginosa PAO1 [5]; 2 mM spermine added along with 16 μg/mL carbenicillin, 24 hours): more than 99% | MICs in the indicated concentrations (mM) of polyamines: Spermine (1 mM) [1]: 1 µg/mL | MICs in the indicated concentrations (mM) of polyamines: Spermidine (20 mM) [1]: 2 µg/mL | MIC (E. coli K10; K10, MHB + 1 mM CaCl2, Spermidine (10 mM)): 2 µg/mL | MIC (E. coli K10; K10, MHB + 1 mM CaCl2, Spermine (1 mM)): 1 µg/mL | MIC (E. coli K10; K10, MHB + 1 mM CaCl2, no polyamine): 16 µg/mL | MIC (E. coli K10; K10, MHB + 1 mM MgSO4, Spermidine (10 mM)): 4 µg/mL | MIC (E. coli K10; K10, MHB + 1 mM MgSO4, Spermine (1 mM)): 1 µg/mL | MIC (E. coli K10; K10, MHB + 1 mM MgSO4, no polyamine): 16 µg/mL | MIC (E. coli K10; K10, MHB + 3 mM CaCl2, Spermidine (10 mM)): 4 µg/mL | MIC (E. coli K10; K10, MHB + 3 mM CaCl2, Spermine (1 mM)): 4 µg/mL | MIC (E. coli K10; K10, MHB + 3 mM CaCl2, no polyamine): 16 µg/mL | MIC (E. coli K10; K10, MHB + 3 mM MgSO4, Spermidine (10 mM)): 4 µg/mL | MIC (E. coli K10; K10, MHB + 3 mM MgSO4, Spermine (1 mM)): 4 µg/mL | MIC (E. coli K10; K10, MHB + 3 mM MgSO4, no polyamine): 16 µg/mL | MIC (E. coli K10; K10, MHB + 100 mM NaCl, Spermidine (10 mM)): 4 µg/mL | MIC (E. coli K10; K10, MHB + 100 mM NaCl, Spermine (1 mM)): 4 µg/mL | MIC (E. coli K10; K10, MHB + 100 mM NaCl, no polyamine): 16 µg/mL | MIC (E. coli K10; K10, MHB + 150 mM NaCl, Spermidine (10 mM)): 4 µg/mL | MIC (E. coli K10; K10, MHB + 150 mM NaCl, Spermine (1 mM)): 4 µg/mL | MIC (E. coli K10; K10, MHB + 150 mM NaCl, no polyamine): 16 µg/mL | MIC (E. coli K10; K10, MHB medium, no supplement, Spermidine (10 mM)): 4 µg/mL | MIC (E. coli K10; K10, MHB medium, no supplement, Spermine (1 mM)): 1 µg/mL | MIC (E. coli K10; K10, MHB medium, no supplement, no polyamine): 16 µg/mL | MIC [3]: 8 µg/mL (≈ 21.1 µM) | susceptibility with the combination of polyamines and antibiotics [4]: improved susceptibility | MIC ([6]; Staphylococcus aureus, MRSA, no spermine, read-out: MICs in the absence or presence of spermine: No add): 256 µg/mL | MICs in the absence or presence of spermine: Spermine (1 mM) ([6]; with 1 mM spermine): 4 µg/mL | MIC ([7]; Staphylococcus aureus, MRSA, no spermine, read-out: MICs in the presence or absence of spermine (1 mM): No add): 256 µg/mL | MICs in the presence or absence of spermine (1 mM): Spermine [7]: 4 µg/mL

Polymyxin B
β-lactamase activities detected in the whole cells ([8]; 100 μg/mL applied to the cell suspension (FIG. 5)): significant activities | MICs in the presence or absence of spermine (1 mM): Spermine [7]: 64 µg/mL

NCCCCNCCCN [Spermidine]
β-lactamase activity detected [8]: only a very low level | MICs to carbenicillin in the indicated concentration of polyamines (P. aeruginosa PAO1 [2]; 0 mM polyamine): 64 µg/mL | MICs to carbenicillin in the indicated concentration of polyamines (P. aeruginosa PAO1 [2]; 0.5 mM polyamine): 32 µg/mL | MICs to carbenicillin in the indicated concentration of polyamines (P. aeruginosa PAO1 [2]; 1 mM polyamine): 16 µg/mL | MICs to carbenicillin in the indicated concentration of polyamines (P. aeruginosa PAO1 [2]; 5 mM polyamine): 16 µg/mL | MICs to carbenicillin in the indicated concentration of polyamines (P. aeruginosa PAO1 [2]; 10 mM polyamine): 8 µg/mL | MICs to carbenicillin in the indicated concentration of polyamines (P. aeruginosa PAO1 [2]; 20 mM polyamine): 4 µg/mL

CC[C@H]1OC(=O)[C@H](C)[C@@H](O[C@H]2C[C@@](C)(OC)[C@@H](O)[C@H](C)O2)[C@H](C)[C@@H](O[C@@H]2O[C@H](C)C[C@H](N(C)C)[C@H]2O)[C@](C)(O)C[C@@H](C)C(=O)[C@H](C)[C@@H](O)[C@]1(C)O [Erythromycin]
MICs in the indicated concentrations (mM) of polyamines: Spermine (1 mM) [1]: 32 µg/mL | MICs in the indicated concentrations (mM) of polyamines: Spermidine (20 mM) [1]: 64 µg/mL | MIC values in the presence versus the absence of polyamines (P. aeruginosa PAO1 [2]): identical | MIC [3]: 64 µg/mL (≈ 87.2 µM) | susceptibility with the combination of polyamines and antibiotics [4]: improved susceptibility

NCCCNCCCCNCCCN [Spermine]
growth of P. aeruginosa PAO1 in human serum (P. aeruginosa PAO1 [5]; presence or absence of 2 mM spermine): not affected | β-lactamase activity detected [8]: only a very low level | MICs to carbenicillin in the indicated concentration of polyamines (P. aeruginosa PAO1 [2]; 0 mM polyamine): 64 µg/mL | MICs to carbenicillin in the indicated concentration of polyamines (P. aeruginosa PAO1 [2]; 0.5 mM polyamine): 16 µg/mL | MICs to carbenicillin in the indicated concentration of polyamines (P. aeruginosa PAO1 [2]; 1 mM polyamine): 4 µg/mL | MICs to carbenicillin in the indicated concentration of polyamines (P. aeruginosa PAO1 [2]; 5 mM polyamine): 4 µg/mL | MICs to carbenicillin in the indicated concentration of polyamines (P. aeruginosa PAO1 [2]; 10 mM polyamine): 4 µg/mL | MICs to carbenicillin in the indicated concentration of polyamines (P. aeruginosa PAO1 [2]; 20 mM polyamine): 4 µg/mL

O=C(O)CN(CCN(CC(=O)O)CC(=O)O)CC(=O)O [EDTA]
release of periplasmic β-lactamase into the suspension solution ([8]; 0.5 mM (FIG. 6)): can be detected | release of periplasmic β-lactamase into the suspension solution ([8]; 1 mM (FIG. 6)): increased

CC(=O)O[C@H]1C[C@@]2(C)[C@@H](C[C@@H](O)[C@H]3[C@@]4(C)CC[C@@H](O)[C@@H](C)[C@@H]4CC[C@@]32C)/C1=C(\CCC=C(C)C)C(=O)O [Fusidic acid]
MICs in the indicated concentrations (mM) of polyamines: Spermine (1 mM) [1]: 1024 µg/mL | MICs in the indicated concentrations (mM) of polyamines: Spermidine (20 mM) [1]: 1024 µg/mL | MIC values in the presence versus the absence of polyamines (P. aeruginosa PAO1 [2]): identical | MIC [3]: > 1020 µg/mL | susceptibility with the combination of polyamines and antibiotics [4]: improved susceptibility
